Test results reported in paper PMC9230651, “Discovery of Novel Quinazoline Derivatives as Potent Antitumor Agents” (Molecules, 2022).

Experiments:
A549 = assay: MTT assay, antiproliferative activity against A549; format: cell-based, human
Method: (§1) Human gastric carcinoma cell line MGC-803, human breast adenocarcinoma cell line MCF-7, human lung carcinoma cell lines (PC-9, A549, and H1975), and human immortalized gastric mucosa epithelial cell line GES-1 were purchased from the Cell Bank of Shanghai Institute of Biochemistry and Cell Biology (Shanghai, China), and all of them were cultured in RPMI-1640 and DMEM complete medium (Solarbio, Beijing, China) at 37 °C in a 5% CO2 humidified atmosphere.
(§2) Briefly, cells were incubated with different concentrations of the test compound for different hours in each experiment for 72 h, followed by adding 20 μL MTT solution to each well, which was then incubated for another 4 h. An enzyme-linked immunosorbent assay reader (BioTek, South Plainfield, VT, USA) was used to measure absorbance values at 490 nm, and SPSS20 software was used to calculate the cell viability and IC50 values.

[1] = tested on: xenograft model carrying MGC-803 cells; assay: In vivo anti-tumor activity, gastric cancer xenograft model; design: species or system mice
Method: Male mice (23–25 g, aged 5–6 weeks) were obtained from Beijing Vital River Laboratory Animal Technology Co., Ltd. (Beijing, China). All animal treatments were performed under the guidelines of the National Institutes of Health Guide for the Care and Use of Laboratory Animals using an approved animal protocol by the Zhengzhou University Committee on Animal Care (2020CHEM-ZZU-086). 1.0 × 10^7 MGC-803 cells were implanted in the right flank of mice subcutaneously. After 16 days, the tumor volume reached 100 mm^3, followed by being randomly divided into three groups (n = 7): solvent group, 5-Fu (10 mg/kg) group, and compound 18 (25 mg/kg) group. An intravenous injection of 5-Fu (10 mg/kg) was administered into the corresponding mice group every three days, while the mice in compound 18 group received intragastric administration of 25 mg/kg compound 18 per day for 21 days. Tumor diameter and body weight were measured every two days, followed by the euthanization of the mice after 34 days, after which tumor weights were.

GES-1 = assay: MTT assay, toxicity toward normal gastric epithelial cell line GES-1; format: cell-based, human; conditions: for IC50: MTT, 72 h
Method: as §1, §2

MCF-7 = assay: MTT assay, antiproliferative activity against MCF-7; format: cell-based, human
Method: as §1, §2

PC-9 = assay: MTT assay, antiproliferative activity against PC-9; format: cell-based, human
Method: as §1, §2

H1975 = assay: MTT assay, antiproliferative activity against H1975; format: cell-based, human
Method: as §1, §2

MGC-803 = assay: MTT assay, antiproliferative activity against MGC-803; format: cell-based, human
Method: as §1, §2

MGC-803 cells [2] = assay: Apoptosis, Annexin V-FITC/PI flow cytometry; format: cell-based, human; conditions: 1.5 μM, 48 h
Method: Cells were plated in 6-well plates and incubated with 0.37 µM, 0.75 µM, and 1.5 µM compound 18 for 48 h, followed by being harvested and stained by PI and Annexin V according to manufacturer’s protocol. Finally, flow cytometry (BD Bioscience, Franklin Lake, NJ, USA) was applied to detect apoptotic cells.

MGC-803 cells [3] = assay: Wound healing migration assay; format: cell-based, human; conditions: 1 µM; 12 h, 24 h, 48 h
Method: For the wound healing assay, MGC-803 cells were seeded into 6-well plates, reaching the density of 90%, followed by being scraped off using a sterile yellow pipette tip and photographed. Subsequently, cells were treated with compound 18 at 1 µM for 12 h, 24 h, and 48 h, respectively, and then photographed again each time.

MGC-803 cells [4] = assay: Transwell migration assay; format: cell-based, human; conditions: 0.37, 0.75, 1.5 µM; 48 h
Method: For the transwell assay, 600 µL of fresh medium was added to 20% FBS to the substrate of the 24-well plates. Then, 2 × 10^4 MGC-803 cells were seeded into each well, followed by incubation with 0.37 µM, 0.75 µM, and 1.5 µM compound 18 in the upper chambers for 48 h, which was then stained by DAPI solution and photographed.

[5] = tested on: healthy male and female mice; assay: Acute toxicity assay; format: in vivo; conditions: 1000 mg/kg intragastric, single dose
Method: The solution of compound 18 was prepared in 80% PEG400 solution. Eight ICR mice (four male/four female, 24–28 g, aged five to six weeks) were obtained from the Beijing Vital River Laboratory Animal Technology Co., Ltd. (Beijing, China). All animal treatments were performed under the guidelines of the National Institutes of Health Guide for the Care and Use of Laboratory Animals using an approved animal protocol by the Zhengzhou University Committee on Animal Care. Male and female mice ([…]) were divided randomly into four groups: a male control group (n = 2), a female control group (n = 2), a male group (n = 2), and a female group (n = 2). All mice were deprived of feed for 12 h. 1 g/kg compound 18 was administered intragastrically in the experiment group of mice, while the mice in the control group received the same volume of vehicle solution on the first day, followed by monitoring abnormal behaviors, body weight, and the death of these mice every day during the following two weeks.

MGC-803 cells [6] = assay: Western blot of apoptosis-related proteins; format: cell-based, human; conditions: 0.37, 0.75, 1.5 µM; 48 h
Method: Cells were incubated with 0.37 µM, 0.75 µM, and 1.5 µM compound 18 for 48 h and then collected with trypsin and total proteins and extracted in a lysis buffer. A BCA protein assay kit (Solarbio, Beijing, China) was used to confirm the concentration of the total proteins. These samples were detected by the standard protocol of western blot as described before.

MGC-803 cells [7] = assay: Cell cycle distribution, PI flow cytometry; format: cell-based, human; conditions: 0.37, 0.75, 1.5 µM; 48 h
Method: MGC-803 cells were seeded into 6-well plates at a concentration of 4 × 10^5 cells per well, followed by being incubated with 0.37 µM, 0.75 µM, and 1.5 µM compound 18 for 48 h, which were subsequently harvested and stained in 500 µL Propidium Iodide solution (PI 1 mg/mL, RNase A 10 mg/mL, Solarbio, Beijing, China) at room temperature without light for 30 min. Finally, flow cytometry (BD Bioscience, Franklin Lake, NJ, USA) was used to detect and analyze staining cells.

[8] = 10 mg/kg intravenous every three days
[9] = 25 mg/kg intragastric per day for 21 days

Compound | IC50 (A549; Homo sapiens, A549, 72 h) | IC50 (MCF-7; Homo sapiens, MCF7, 72 h) | IC50 (PC-9; Homo sapiens, PC-9, 72 h) | IC50 (H1975; Homo sapiens, NCI-H1975, 72 h) | IC50 (MGC-803; Homo sapiens, MGC-803, 72 h) | melting point | IC50 (GES-1; Homo sapiens, GES1) | other results
O=c1[nH]cc(F)c(=O)[nH]1 [5-Fu, reference compound] |  |  |  |  |  |  |  | IC50 (A549; 72 h): 5.12 ± 1.73 µM; average tumor volume [1, 8]: decreased the average tumor volume; body weight [1, 8]: did not cause significant changes in body weight; tumor weight [1, 8]: decreased the average tumor volume and tumor weight; IC50 (GES-1): 3.26 ± 1.07 µM; IC50 (MCF-7; 72 h): 4.51 ± 1.23 µM; IC50 (PC-9; 72 h): 3.68 ± 1.06 µM; IC50 (H1975; 72 h): 2.68 ± 0.86 µM; IC50 (MGC-803; 72 h): 4.11 ± 0.72 µM
O=[N+]([O-])c1ccc(Nc2nc(-c3ccccc3)nc3ccccc23)cc1 [compound 10, N-(4-Nitrophenyl)-2-phenylquinazolin-4-amine] | 15.7 ± 1.89 µM | 12.2 ± 1.91 µM | 12.5 ± 2.83 µM | 25.8 ± 2.2 µM | 8.32 ± 2.06 µM |  | > 30 µM | 
FC(F)(F)c1ccc(Nc2nc(-c3ccccc3)nc3ccccc23)cc1 [compound 11, 2-Phenyl-N-(4-(trifluoromethyl)phenyl)quinazolin-4-amine] | 25.4 ± 3.11 µM | 15.7 ± 1.82 µM | 20.8 ± 2.16 µM | 22.9 ± 2.69 µM | 11 ± 1.93 µM | 190 to 195 °C | 25.4 ± 3.51 µM | 
COc1ccc(Nc2nc(-c3ccccc3)nc3ccccc23)cc1 [compound 13, N-(4-Methoxyphenyl)-2-phenylquinazolin-4-amine] | 5.69 ± 1.68 µM | 8.36 ± 1.92 µM | 6.83 ± 1.29 µM | > 30 µM | 4.98 ± 1.26 µM |  | 21.3 ± 2.79 µM | 
COc1cc(Nc2nc(-c3ccccc3)nc3ccccc23)cc(OC)c1OC [compound 14, 2-Phenyl-N-(3,4,5-trimethoxyphenyl)quinazolin-4-amine] | 8.72 ± 1.53 µM | 3.21 ± 2.28 µM | 5.35 ± 1.82 µM | 13.2 ± 1.86 µM | 2.12 ± 0.97 µM |  | 19.6 ± 2.58 µM | 
O=C(/C=C/c1ccc(F)cc1)c1ccc(Nc2nc(-c3ccccc3)nc3ccccc23)cc1 [compound 16, (E)-3-(4-Fluorophenyl)-1-(4-((2-phenylquinazolin-4-yl)amino)phenyl)prop-2-en-1-one] | 1.98 ± 0.26 µM | 3.96 ± 0.92 µM | 2.75 ± 0.66 µM | 3.67 ± 0.93 µM | 2.02 ± 0.38 µM | 252 to 256 °C | 18.8 ± 1.56 µM | 
O=C(/C=C/c1ccc(Cl)cc1)c1ccc(Nc2nc(-c3ccccc3)nc3ccccc23)cc1 [compound 17, (E)-3-(4-Chlorophenyl)-1-(4-((2-phenylquinazolin-4-yl)amino)phenyl)prop-2-en-1-one] | 1.46 ± 0.16 µM | 2.37 ± 0.35 µM | 1.89 ± 0.67 µM | 4.75 ± 0.81 µM | 1.39 ± 0.26 µM | 263 to 267 °C | 23.4 ± 2.83 µM | 
O=C(/C=C/c1ccc(Br)cc1)c1ccc(Nc2nc(-c3ccccc3)nc3ccccc23)cc1 [compound 18, (E)-3-(4-Bromophenyl)-1-(4-((2-phenylquinazolin-4-yl)amino)phenyl)prop-2-en-1-one] | 1.54 ± 0.38 µM | 1.61 ± 0.2 µM | 1.26 ± 0.18 µM | 2.12 ± 0.52 µM | 0.85 ± 0.14 µM |  | 26.8 ± 1.85 µM | apoptotic percentage (late and early apoptosis) (MGC-803 cells [2]): 70.9%; effect on migration of MGC-803 cells, wound healing assay (MGC-803 cells [3]): effectively inhibit the migration of MGC-803 cells dose-dependently; average tumor volume [1, 9]: decreased the average tumor volume; body weight [1, 9]: did not cause significant changes in body weight; tumor weight [1, 9]: decreased the average tumor volume and tumor weight; effect on migration of MGC-803 cells, transwell assay (MGC-803 cells [4]): effectively inhibit the migration of MGC-803 cells dose-dependently; pathological damage of brain, heart, liver, spleen, lung, kidney (HE staining) [5]: no marked pathological damage; selectivity MGC-803 against GES-1 (GES-1; IC50 GES-1 / IC50 MGC-803): ~32 fold; expression of Bax (MGC-803 cells [6]): up-regulating; expression of Bcl-2 (MGC-803 cells [6]): remarkably decreased; expression of Mcl-1 (MGC-803 cells [6]): remarkably decreased; expression of cleaved PARP (MGC-803 cells [6]): dose-dependently induced the up-regulation; effect on cell cycle (MGC-803 cells [7]): significantly induced cell cycle arrest at G2/M
O=C(/C=C/c1ccc2ccccc2c1)c1ccc(Nc2nc(-c3ccccc3)nc3ccccc23)cc1 [compound 19, (E)-3-(Naphthalen-2-yl)-1-(4-((2-phenylquinazolin-4-yl)amino)phenyl)prop-2-en-1-one] | 2.55 ± 0.49 µM | 1.96 ± 0.56 µM | 1.39 ± 0.25 µM | 2.61 ± 0.59 µM | 1.56 ± 0.92 µM | 281 to 286 °C | 19.8 ± 2.21 µM | 

Continued, in another order:

IC50 (A549; Homo sapiens, A549, 72 h) | IC50 (MCF-7; Homo sapiens, MCF7, 72 h) | IC50 (PC-9; Homo sapiens, PC-9, 72 h) | IC50 (H1975; Homo sapiens, NCI-H1975, 72 h) | IC50 (MGC-803; Homo sapiens, MGC-803, 72 h) | melting point | Compound | IC50 (GES-1; Homo sapiens, GES1) | other results
10.3 ± 0.98 µM | 12.6 ± 0.16 µM | 15.8 ± 0.52 µM | 20.1 ± 1.62 µM | 6.23 ± 0.12 µM |  | c1ccc(Nc2nc(-c3ccccc3)nc3ccccc23)cc1 [compound 6, N,2-Diphenylquinazolin-4-amine] | > 30 µM | 
4.82 ± 0.99 µM | 8.75 ± 1.76 µM | 10.6 ± 2.16 µM | 12.6 ± 2.89 µM | 4.15 ± 1.16 µM |  | Fc1ccc(Nc2nc(-c3ccccc3)nc3ccccc23)cc1 [compound 7, N-(4-Fluorophenyl)-2-phenylquinazolin-4-amine] | 20.8 ± 3.29 µM | 
6.58 ± 1.31 µM | 6.96 ± 1.57 µM | 8.75 ± 1.59 µM | 10.6 ± 2.46 µM | 3.57 ± 0.89 µM |  | Clc1ccc(Nc2nc(-c3ccccc3)nc3ccccc23)cc1 [compound 8, N-(4-Chlorophenyl)-2-phenylquinazolin-4-amine] | > 30 µM | 
4.75 ± 1.36 µM | 5.15 ± 1.16 µM | 4.31 ± 0.96 µM | 6.65 ± 1.57 µM | 1.89 ± 0.59 µM | 187 to 193 °C | Brc1ccc(Nc2nc(-c3ccccc3)nc3ccccc23)cc1 [compound 9, N-(4-Bromophenyl)-2-phenylquinazolin-4-amine] | 18.6 ± 1.72 µM | 
8.56 ± 1.72 µM | 10.6 ± 1.67 µM | 15.3 ± 1.53 µM | 19.4 ± 2.38 µM | 5.81 ± 2.41 µM |  | Cc1ccc(Nc2nc(-c3ccccc3)nc3ccccc23)cc1 [compound 12, 2-Phenyl-N-(p-tolyl)quinazolin-4-amine] | 24.3 ± 1.96 µM | 
12.2 ± 1.59 µM | > 30 µM | 15.4 ± 1.92 µM | 10.4 ± 1.88 µM | 18.9 ± 2.82 µM | 204 to 208 °C | c1ccc(-c2nc(Nc3cccc4ccccc34)c3ccccc3n2)cc1 [compound 15, N-(Naphthalen-1-yl)-2-phenylquinazolin-4-amine] | > 30 µM | 
